Molecular target: T1, human mAChR M4 (Homo sapiens, UniProt P08173)
T1 construct: expressed in transfected cells; host or cells: CHO-K1 (American Type Culture Collection), stably expressing hM4 and Gqi5
T1 sequence (P08173 1-479): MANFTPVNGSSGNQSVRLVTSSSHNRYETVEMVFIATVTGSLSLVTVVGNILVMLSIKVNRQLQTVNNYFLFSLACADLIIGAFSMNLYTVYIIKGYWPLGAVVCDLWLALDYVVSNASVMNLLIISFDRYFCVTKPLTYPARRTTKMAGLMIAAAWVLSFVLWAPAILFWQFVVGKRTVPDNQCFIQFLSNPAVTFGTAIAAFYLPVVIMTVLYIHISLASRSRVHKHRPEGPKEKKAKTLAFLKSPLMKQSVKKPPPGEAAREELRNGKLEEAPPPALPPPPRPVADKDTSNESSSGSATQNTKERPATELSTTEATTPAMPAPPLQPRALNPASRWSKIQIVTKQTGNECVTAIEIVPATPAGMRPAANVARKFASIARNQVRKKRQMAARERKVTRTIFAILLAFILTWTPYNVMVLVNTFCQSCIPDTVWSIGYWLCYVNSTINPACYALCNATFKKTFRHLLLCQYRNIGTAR
Assay: mAChR M4 cell-based functional assay: calcium mobilization (Fluo-4, FDSS), potentiation of EC20 acetylcholine response in hM4-Gqi5 CHO-K1 cells
Conditions: human M4; for Emax at 30 µM: CHO-K1, % ACh maximum at 30 μM; for EC50: potentiation of EC20 acetylcholine response, calcium mobilization
In short: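 CHO-K1 cells stably co-expressing human M4 and chimeric Gqi5, loaded with Fluo-4 AM (50 min, 37 °C). Compounds in 11-point 1:3 series added first; EC20 acetylcholine added at 144 s and again at 230 s. Calcium read on FDSS at 1 Hz; EC50 and Emax from four-parameter logistic fit of potentiated EC20 response.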

| Emax at 30 µM | EC50 | SMILES |
| --- | --- | --- |
| 45% | 1230 nM | Cc1cc2nccc(=O)n2nc1N1CCc2ncc(-c3ccc(Cl)nn3)cc2C1 [Compound 1-334, 7-(3-(6-chloropyridazin-3-yl)-7,8-dihydro-1,6-naphthyridin-6(5H)-yl)-8-methyl-4H-pyrimido [1,2-b]pyridazin-4-one] |
| 89% | 15 nM | Cc1c(N2CCc3ncc(N4CCOc5ncccc54)cc3C2)nn2c(=O)ccnc2c1C [Compound 2-33, 7-(3-(2,3-dihydro-1H-pyrido[2,3-b][1,4]oxazin-1-yl)-7,8-dihydro-1,6-naphthyridin-6(5H)-yl)-8,9-dimethyl-4H-pyrimido[1,2-b]pyridazin-4-one] |
| 97% | 368 nM | Cc1cc(=O)n2nc(N3CCc4ncc(-c5cnccn5)cc4C3)c(C)c(C)c2n1 [Compound 1-125, 2,8,9-trimethyl-7-(3-(pyrazin-2-yl)-7,8-dihydro-1,6-naphthyridin-6(5H)-yl)-4H-pyrimido[1,2-b]pyridazin-4-one] |
| 88% | 397 nM | Cc1cc2nccc(=O)n2nc1N1CCc2ncc(-c3cccnc3F)cc2C1 [Compound 1-58, 7-(3-(2-fluoropyridin-3-yl)-7,8-dihydro-1,6-naphthyridin-6(5H)-yl)-8-methyl-4H-pyrimido[1,2-b]pyridazin-4-one] |
| 66% | 232 nM | Cc1c(N2CCc3ncc(-c4ccc5nccn5c4)cc3C2)nn2c(=O)ccnc2c1C [Compound 1-225, 7-(3-(imidazo[1,2-a]pyridin-6-yl)-7,8-dihydro-1,6-naphthyridin-6(5H)-yl)-8,9-dimethyl-4H-pyrimido[1,2-b]pyridazin-4-one] |
| 98% | 77 nM | COc1cc(C)c(-c2cnc3c(c2)CN(c2nn4c(=O)ccnc4c(C)c2C)CC3)cn1 [Compound 1-139, 7-(3-(6-methoxy-4-methylpyridin-3-yl)-7,8-dihydro-1,6-naphthyridin-6(5H)-yl)-8,9-dimethyl-4H-pyrimido[1,2-b]pyridazin-4-one] |
| 92% | 798 nM | Cc1cc(=O)n2nc(N3CCc4ncc(-c5ccnnc5)cc4C3)c(C)c(C)c2n1 [Compound 1-132, 2,8,9-trimethyl-7-(3-(pyridazin-4-yl)-7,8-dihydro-1,6-naphthyridin-6(5H)-yl)-4H-pyrimido[1,2-b]pyridazin-4-one] |
| 47% | – | Cc1c(N2CCc3ncc(-c4cnn(-c5ccccc5F)c4)cc3C2)nn2c(=O)cc(C(F)F)nc2c1C [Compound 1-165, 2-(difluoromethyl)-7-(3-(1-(2-fluorophenyl)-1H-pyrazol-4-yl)-7,8-dihydro-1,6-naphthyridin-6(5H)-yl)-8,9-dimethyl-4H-pyrimido[1,2-b]pyridazin-4-one] |
| 105% | 259 nM | Cc1cc2nccc(=O)n2nc1N1CCc2ncc(-c3cncn3C)cc2C1 [Compound 1-392, 8-methyl-7-(3-(1-methyl-1H-imidazol-5-yl)-7,8-dihydro-1,6-naphthyridin-6(5H)-yl)-4H-pyrimido[1,2-b] pyridazin-4-one] |

More lines, now with the values behind:

| SMILES | Emax at 30 µM | EC50 |
| --- | --- | --- |
| Cc1cc2ncc(C3CCCC3)c(=O)n2nc1N1CCc2ncc(C(F)(F)F)cc2C1 [Compound 1-23, 3-Cyclopentyl-8-methyl-7-(3-(trifluoromethyl)-7,8-dihydro-1,6-naphthyridin-6(5H)-yl)-4H-pyrimido[1,2-b]pyridazin-4-one] | 75% | 363 nM |
| Cc1cc2nccc(=O)n2nc1N1CCc2ncc(-c3cnn(C4CC4)c3)cc2C1 [Compound 1-8, 7-(3-(1-cyclopropyl-1H-pyrazol-4-yl)-7,8-dihydro-1,6-naphthyridin-6(5H)-yl)-8-methyl-4H-pyrimido[1,2-b]pyridazin-4-one] | 81% | 308 nM |
| Cc1cc2nccc(=O)n2nc1N1CCc2ncc(Nc3ccnn3C)cc2C1 [Compound 2-8, 8-methyl-7-(3-((1-methyl-1H-pyrazol-5-yl)amino)-7,8-dihydro-1,6-naphthyridin-6(5H)-yl)-4H-pyrimido[1,2-b]pyridazin-4-one] | 84% | 384 nM |
| Cc1cc2ncc(Cl)c(=O)n2nc1N1CCc2ncc(-c3ccnn3C)cc2C1 [Compound 1-10, 3-chloro-8-methyl-7-(3-(1-methyl-1H-pyrazol-5-yl)-7,8-dihydro-1,6-naphthyridin-6(5H)-yl)-4H-pyrimido[1,2-b]pyridazin-4-one] | 86% | 162 nM |
| COCc1cc(=O)n2nc(N3CCc4ncc(-c5cc(F)ccn5)cc4C3)c(C)cc2n1 [Compound 1-383, 7-(3-(4-fluoropyridin-2-yl)-7,8-dihydro-1,6-naphthyridin-6(5H)-yl)-2-(methoxymethyl)-8-methyl-4H-pyrimido[1,2-b] pyridazin-4-one] | 83% | 647 nM |
| Cc1cc2nccc(=O)n2nc1N1CCc2ncc(N3CC4(COC4)C3)cc2C1 [Compound 2-151, 7-(3-(2-oxa-6-azaspiro[3.3]heptan-6-yl)-7,8-dihydro-1,6-naphthyridin-6(5H)-yl)-8-methyl-4H-pyrimido[1,2-b]pyridazin-4-one] | 56% | – |
| Cc1cc2nccc(=O)n2nc1N1CCc2ncc(N3CCOC(c4ccccc4)C3)cc2C1 (stereo in doubt) [Compound 2-96, (R)-8-methyl-7-(3-(2-phenylmorpholino)-7,8-dihydro-1,6-naphthyridin-6(5H)-yl)-4H-pyrimido[1,2-b]pyridazin-4-one] | 42% | 1430 nM |
| Cc1cc2nccc(=O)n2nc1N1CCc2ncc(-c3ccsc3C=O)cc2C1 [Compound 1-415, 3-(6-(8-methyl-4-oxo-4H-pyrimido[1,2-b]pyridazin-7-yl)-5,6,7,8-tetrahydro-1,6-naphthyridin-3-yl)thiophene-2-carbaldehyde] | 86% | 810 nM |
| Cc1cc(=O)n2nc(N3CCc4ncc(N5CCOC(C)(C)C5)cc4C3)c(C)c(C)c2n1 [Compound 2-39, 7-(3-(2,2-dimethylmorpholino)-7,8-dihydro-1,6-naphthyridin-6(5H)-yl)-2,8,9-trimethyl-4H-pyrimido[1,2-b]pyridazin-4-one] | 96% | 123 nM |
| Cc1cc2nc(C(=O)N3CCC(c4cccnc4)C3)cc(=O)n2nc1N1CCc2ncc(C(F)(F)F)cc2C1 (centres unmarked) [Compound 1-43, 8-methyl-2-(3-(pyridin-3-yl)pyrrolidine-1-carbonyl)-7-(3-(trifluoromethyl)-7,8-dihydro-1,6-naphthyridin-6(5H)-yl)-4H-pyrimido[1,2-b]pyridazin-4-one] | 92% | 612 nM |
| Cc1c(N2CCc3ncc(C(F)(F)F)cc3C2)nn2c(=O)cc(C(F)(F)F)nc2c1C [Compound 1-39, 8,9-dimethyl-2-(trifluoromethyl)-7-(3-(trifluoromethyl)-7,8-dihydro-1,6-naphthyridin-6(5H)-yl)-4H-pyrimido[1,2-b]pyridazin-4-one] | 86% | 206 nM |
| COC1CCN(c2cnc3c(c2)CN(c2nn4c(=O)cc(C)nc4c(C)c2C)CC3)CC1 [Compound 2-45, 7-(3-(4-methoxypiperidin-1-yl)-7,8-dihydro-1,6-naphthyridin-6(5H)-yl)-2,8,9-trimethyl-4H-pyrimido[1,2-b]pyridazin-4-one] | 66% | 827 nM |
| COCc1cc(=O)n2nc(N3CCc4ncc(-c5cccc(F)c5)cc4C3)c(C)cc2n1 [Compound 1-358, 7-(3-(3-fluorophenyl)-7,8-dihydro-1,6-naphthyridin-6(5H)-yl)-2-(methoxymethyl)-8-methyl-4H-pyrimido[1,2-b] pyridazin-4-one] | 83% | 337 nM |
| COCc1cc(=O)n2nc(N3CCc4ncc(-c5sccc5OC)cc4C3)c(C)cc2n1 [Compound 1-368, 2-(methoxymethyl)-7-(3-(3-methoxythiophen-2-yl)-7,8-dihydro-1,6-naphthyridin-6(5H)-yl)-8-methyl-4H-pyrimido[1,2-b]pyridazin-4-one] | 95% | 293 nM |
| Cc1cc(=O)n2nc(N3CCc4ncc(C(F)(F)F)cc4C3)c(C)c(C)c2n1 [Compound 1-33, 2,8,9-trimethyl-7-(3-(trifluoromethyl)-7,8-dihydro-1,6-naphthyridin-6(5H)-yl)-4H-pyrimido[1,2-b]pyridazin-4-one] | 77% | 64 nM |
| Cc1cc2nccc(=O)n2nc1N1CCc2ncc(-c3c(C)nn(C)c3C)cc2C1 [Compound 1-424, 8-methyl-7-(3-(1,3,5-trimethyl-1H-pyrazol-4-yl)-7,8-dihydro-1,6-naphthyridin-6(5H)-yl)-4H-pyrimido[1,2-b] pyridazin-4-one] | 84% | 746 nM |
| Cc1cc2nc(C(F)F)cc(=O)n2nc1N1CCc2ncc(-c3cn(C)nc3C)cc2C1 [Compound 1-34, 2-(difluoromethyl)-7-(3-(1,3-dimethyl-1H-pyrazol-4-yl)-7,8-dihydro-1,6-naphthyridin-6(5H)-yl)-8-methyl-4H-pyrimido[1,2-b]pyridazin-4-one] | 90% | 73 nM |
